Earlier results on 2 molecules are cited in patent US6852743B1, “Preventives for the recurrence of cerebrovascular failure and agents for ameliorating troubles following cerebrovascular failure and inhibiting progress thereof” (Takeda Pharmaceutical Company Limited, priority 1999, dated 2005).

The subject of series [1] is automatic regulation of cerebral blood flow. Particulars: literature report, Vraamark T et al., J Hypertens 13:755-761, 1995.
For the next series, the system named is insulin sensitivity. Particulars: clinically; Iimura O. et al., Am J Hypertens 8, 353-357, 1995.

Regarding `CCOc1nc2cccc(C(=O)O)c2n1Cc1ccc(-c2ccccc2-c2nnn[nH]2)cc1` [Candesartan, 2-ethoxy-1-[[2′-(1H-tetrazole-5-yl)biphenyl-4-yl]methyl]benzimidazol-7-carboxylic acid], the “effect on the lower limit of automatic regulation” value in series [1] is given as “can deviate the lower limit of automatic regulation leftward (toward lower blood pressure level)”.

`CCOc1nc2cccc(C(=O)OC(C)OC(=O)OC3CCCCC3)c2n1Cc1ccc(-c2ccccc2-c2nnn[nH]2)cc1` (centres unmarked) [Candesartan cilexetil, 1-(cyclohexyloxycarbonyloxy)ethyl 2-ethoxy-1-[[2′-(1H-tetrazole-5-yl)biphenyl-4-yl]methyl]benzimidazole-7-carboxylate]: in the series on insulin sensitivity, the insulin sensitivity entry is reported as “improve insulin sensitivity clinically”.
